Reference: patent publication US20140193827A1 (TEVA PHARMACEUTICAL INDUSTRIES, LTD., priority 2013, published 2014)

System: GA-primed murine splenocytes
Assay: Tolerance method for assessing process variability
Conditions: microarray; splenocytes activated 24 hours

glatiramer acetate [GA]
AVG expression of 1110067B18RIK, probe ILMN_2514723: 8.228
AVG expression of 1190002H23RIK, probe ILMN_2593774: 7.583
AVG expression of 1700129I04RIK, probe ILMN_1224390: 6.752
AVG expression of 2810485I05RIK, probe ILMN_2695217: 10.37
AVG expression of A130087I02RIK, probe ILMN_1232144: 6.482
AVG expression of A630077B13RIK, probe ILMN_1249864: 9.099
AVG expression of A930005H10RIK, probe ILMN_1250135: 10.04
AVG expression of ADA, probe ILMN_2686132: 7.525
AVG expression of AI467606, probe ILMN_1213645: 10.38
AVG expression of ANKRD11, probe ILMN_2727235: 9.978
AVG expression of APPL2, probe ILMN_1219978: 7.742
AVG expression of ARHGAP4, probe ILMN_2677876: 11.38
AVG expression of ARRB2, probe ILMN_2700848: 9.049
AVG expression of AVIL, probe ILMN_2753149: 6.407
AVG expression of B3GNT7, probe ILMN_2655571: 6.563
AVG expression of B230345P09RIK, probe ILMN_2469190: 8.997
AVG expression of BATF3, probe ILMN_2526739: 6.73
AVG expression of BC038822, probe ILMN_2804103: 7.38
AVG expression of BC065085, probe ILMN_2974737: 7.582
AVG expression of BEX4, probe ILMN_3118584: 6.717
AVG expression of BLVRB, probe ILMN_2770917: 9.003
AVG expression of C3, probe ILMN_2759484: 8.352
AVG expression of C130078N17RIK, probe ILMN_2522495: 10.34
AVG expression of C230082I21RIK, probe ILMN_1248824: 8.744
AVG expression of C430002D13RIK, probe ILMN_2571616: 7.951
AVG expression of CCND2, probe ILMN_1225932: 8.425
AVG expression of CCNG1, probe ILMN_2710229: 8.72
AVG expression of CCR6, probe ILMN_2888448: 11.42
AVG expression of CD44, probe ILMN_1223697: 10.12
AVG expression of CHD3, probe ILMN_2524861: 7.978
AVG expression of CHKA, probe ILMN_3026397: 12.08
AVG expression of CLASP1, probe ILMN_1225769: 7.92
AVG expression of CLIC4, probe ILMN_2599018: 7.206
AVG expression of CLSPN, probe ILMN_2858359: 8.857
AVG expression of CRTC3, probe ILMN_1248891: 8.262
AVG expression of CSNK1G3, probe ILMN_2793946: 9.73
AVG expression of CYP51, probe ILMN_2688075: 9.707
AVG expression of DEADC1, probe ILMN_2705097: 9.246
AVG expression of DGKZ, probe ILMN_1239607: 8.46
AVG expression of DLM1-PENDING, probe ILMN_1218547: 6.869
AVG expression of DYRK2, probe ILMN_3138439: 6.905
AVG expression of E2F3, probe ILMN_2743503: 7.726
AVG expression of EG433016, probe ILMN_2995688: 8.853
AVG expression of ENTPD5, probe ILMN_3149143: 7.434
AVG expression of F2RL1, probe ILMN_2769567: 6.312
AVG expression of FBXO4, probe ILMN_2772920: 9.934
AVG expression of FOSL2, probe ILMN_1252481: 8.057
AVG expression of FOXP3, probe ILMN_2917180: 7.709
AVG expression of FSCN1, probe ILMN_2630605: 8.879
AVG expression of FXYD5, probe ILMN_1235493: 10.05
AVG expression of GAB3, probe ILMN_3133748: 7.208
AVG expression of GRN, probe ILMN_2595973: 10.66
AVG expression of H3F3B, probe ILMN_1231168: 8.812
AVG expression of HAMP, probe ILMN_1236304: 6.455
AVG expression of HEG1, probe ILMN_2600022: 7.682
AVG expression of HIST2H2AA1, probe ILMN_2751948: 7.127
AVG expression of HTT, probe ILMN_2672091: 7.448
AVG expression of IFITM1, probe ILMN_2814484: 7.066
AVG expression of IFNGR2, probe ILMN_2784272: 9.806
AVG expression of IGK-V5, probe ILMN_2631259: 11.21
AVG expression of IL1A, probe ILMN_1227018: 8.103
AVG expression of IL13, probe ILMN_2927131: 6.7
AVG expression of IRF8, probe ILMN_2673369: 10.92
AVG expression of KIF1B, probe ILMN_2587761: 6.394
AVG expression of LDHA, probe ILMN_1257965: 12.99
AVG expression of LOC386005, probe ILMN_2538029: 10.77
AVG expression of LOC637711, probe ILMN_1239601: 8.053
AVG expression of LOC677643, probe ILMN_1225733: 9.931
AVG expression of LOC100043671, probe ILMN_1258600: 9.958
AVG expression of LOC100046496, probe ILMN_1229263: 10.5
AVG expression of LOC100046793, probe ILMN_2469743: 12
AVG expression of LOC100047316, probe ILMN_1215825: 8.765
AVG expression of LY78, probe ILMN_2585533: 7.951
AVG expression of MSH5, probe ILMN_1241923: 6.819
AVG expression of NFAT5, probe ILMN_2612448: 9.617
AVG expression of NKG7, probe ILMN_1217855: 9.69
AVG expression of PEA15, probe ILMN_2624938: 8.032
AVG expression of PEX11C, probe ILMN_2467365: 6.162
AVG expression of RABAC1, probe ILMN_1244857: 10.79
AVG expression of RDM1, probe ILMN_1218934: 9.296
AVG expression of RFC3, probe ILMN_2543834: 7.31
AVG expression of RNF167, probe ILMN_2892856: 9.181
AVG expression of RUNDC3B, probe ILMN_2660596: 7.1822
AVG expression of SCN4A, probe ILMN_2814847: 7.299
AVG expression of SDF2L1, probe ILMN_1221943: 9.843
AVG expression of SERPINA3H, probe ILMN_2889832: 7.95
AVG expression of SGCB, probe ILMN_1255256: 7.292
